In patent publication US9616010B2, “Cosmetic composition comprising a ternary lipid association for controlling dryness of the skin” (PIERRE FABRE DERMO-COSMETIQUE, priority 2013, dated 2017):

How the values were obtained:
isolated stratum corneum = settings: Levi et al., Int J Cosmet Sci. 2010; 32: 276-93; cited from earlier work
[1] = system: isolated stratum corneum (SC) from human skin explants; assay: Mechanical stress within isolated SC subjected to dehydration stress in an environmental chamber (substrate curvature)
Text: These elements led the Applicant to use an in vitro model of isolated SC to study changes in mechanical properties as a function of hydration level. Measuring skin tension makes it possible to define a relationship between skin dryness and skin stress, and the appearance of cracks. Moreover, the use of this model makes it possible to know with a high degree of accuracy the effect of active agents on these mechanical measurements and, consequently, on the hydration state of the stratum corneum. (K. Levi, R. J. Weber, J. Q. Do and R. H. Dauskardt. International Journal of Cosmetic Science, 2010, 32, 276-293 Drying stress and damage processes in human stratum corneum) (K. Levi and R. H. Dauskardt. International Journal of Cosmetic Science, 2010, 32, 294-298 Application of substrate curvature method to differentiate drying stresses in topical coatings and human stratum corneum).
The mechanical approach used here consists in measuring the mechanical stress produced within SC that has been isolated and subjected to dehydration stress in an environmental chamber.
The SC specimen—from human skin explants—was isolated by enzymatic digestion. It was placed on a borosilicate slide to which it naturally adheres.
The SC, initially 100% hydrated, is then placed in an atmosphere with 7% air humidity. The SC then undergoes a progressive dehydration, during which measurements of SC tension are taken every 15 minutes for 8 hours using a stress measurement device. […] Given the differences that exist between its mechanical properties and those of the support (the slide), the latter bends. By means of this radius of curvature, measured with a laser interferometer, it is then possible to calculate the state of tension/stress from the Stoney equation. The initial data correspond to a measurement of the variation of the curvature of the unit (borosilicate slide+SC). It is possible to calculate the biomechanical stress parameters of the SC, such as tension, from knowledge of the biomechanical properties of the borosilicate slide, its thickness, and the thickness of the SC (see methodology FIG. 1; and bibliographical reference K. Levi, et al., IJCS 2010).
This first kinetics study makes it possible to know the behavior of untreated SC. Next, the unit (SC+slide) is returned to 100% air humidity for 2 hours and then incubated in the various treatments for 5 minutes. A […] film is deposited: using a spiral filmograph for liquid emollients and a slide for creams. At the end of this period the unit is again placed in 7% air humidity for the study of dehydration kinetics until stabilization of the measurements (generally 8 to 12 hours). […]

For isocetyl stearoyl stearate [compound 1], the “efficacy with respect to the shrinking of the stratum corneum specimen desiccated by a lack of moisture” value (isolated stratum corneum) is given as “good efficacy”, the “maximum stress within the SC” value ([1]; SC pretreated 5 minutes, then 7% air humidity, compared with untreated control, FIG. 3) is given as “momentarily greater than the control” and the “time to reach minimum stress plateau” value ([1]; after the stress starts to fall, 7% air humidity, FIG. 3) is given as 2 h. For the same substance, the “time after which the stress falls” value ([1]; hours of dehydration at 7% air humidity, FIG. 3) was 3 h and the “shrinking of the skin induced by drying stress” value ([1]; topical application, during the first 4 hours, FIG. 1) was “increases”.
